In US9732087B2, “Diamino-pyridine, pyrimidine, and pyridazine modulators of the histamine H4 receptor” (JANSSEN PHARMACEUTICA NV, priority 2008, dated 2017):

Biological target: human H4 receptor (Homo sapiens (Human), UniProt Q9H3N8)
Assay: Binding assay on recombinant human histamine H4 receptor ([3H]histamine competition, SK-N-MC cell membranes)
Conditions: membranes harvested with cell harvester; [3H]histamine 10 nM; average of results; read-out: Cell Harvester Ki
In short: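 Scintillation counting of filter-bound [3H]histamine after rapid harvesting on 0.5% PEI-treated GF/C filters with ice-cold Tris/EDTA washes. Receptor source: 30,000 g membrane pellets of SK-N-MC cells stably or transiently expressing human H4. Values shown as '>' are the top concentration tested.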

Row | Compound | Ki [nM]
1 | CN[C@@H]1CCN(c2ccnc(N[C@H](C)C3CCCCC3)c2)C1 [Example 209, N-[(1R)-1-Cyclohexylethyl]-4-[(3R)-3-(methylamino)pyrrolidin-1-yl]pyridin-2-amine] | 1460
2 | CN[C@H]1CCN(c2ccnc(NC34CC5CC(CC(C5)C3)C4)c2)C1 [Example 210, Adamantan-1-yl-[4-(3S)-(3-methylamino-pyrrolidin-1-yl)-pyridin-2-yl]-amine] | 296
3 | CN1CCN(c2ccnc(NCC3CCCCC3)c2)CC1 [Example 212, N-(Cyclohexylmethyl)-4-(4-methylpiperazin-1-yl)pyridin-2-amine] | 275
4 | C[C@@H](Nc1cc(N2CCN(C)CC2)ccn1)C1CCCCC1 [Example 214, N-[(1R)-1-Cyclohexylethyl]-4-(4-methylpiperazin-1-yl)pyridin-2-amine] | 416
5 | CN1CCN(c2ccnc(NCCCO)c2)CC1 [Example 216, 3-{[4-(4-Methylpiperazin-1-yl)pyridin-2-yl]amino}propan-1-ol] | 1430
6 | CN1CCN(c2ccnc(NC[C@H]3CC[C@H]4C[C@@H]3C4(C)C)c2)CC1 [Example 221, N-{[(1S,2S,5S)-6,6-Dimethylbicyclo[3.1.1]hept-2-yl]methyl}-4-(4-methylpiperazin-1-yl)pyridin-2-amine] | 853
7 | CN1CCN(c2ccnc(NC3CCOCC3)c2)CC1 [Example 223, 4-(4-Methylpiperazin-1-yl)-N-(tetrahydro-2H-pyran-4-yl)pyridin-2-amine] | 723
8 | CN[C@H]1CCN(c2ccnc(NCC3CCCC3)c2)C1 [Example 227, N-(Cyclopentylmethyl)-4-[(3S)-3-(methylamino)pyrrolidin-1-yl]pyridin-2-amine] | 260
9 | CN[C@H]1CCN(c2ccnc(NCc3ccccn3)c2)C1 [Example 229, 4-[(3S)-3-(Methylamino)pyrrolidin-1-yl]-N-(pyridin-2-ylmethyl)pyridin-2-amine] | > 10000
10 | CN[C@H]1CCN(c2ccnc(NC3C[C@H]4C[C@@H](C3C)C4(C)C)c2)C1 (stereo partly drawn) [Example 230, 4-[(3S)-3-(Methylamino)pyrrolidin-1-yl]-N-[(1S,5R)-2,6,6-trimethylbicyclo[3.1.1]hept-3-yl]pyridin-2-amine] | 276
11 | CC1C(Nc2cc(N3CCN(C)CC3)ccn2)C[C@H]2C[C@@H]1C2(C)C (stereo partly drawn) [Example 232, 4-(4-Methylpiperazin-1-yl)-N-[(1S,5R)-2,6,6-trimethylbicyclo[3.1.1]hept-3-yl]pyridin-2-amine] | 716
12 | CN[C@H]1CCN(c2ccnc(NCCCO)c2)C1 [Example 234, 3-({4-[(3S)-3-(Methylamino)pyrrolidin-1-yl]pyridin-2-yl}amino)propan-1-ol] | 7260
13 | CN[C@H]1CCN(c2ccnc(NC3CC3)c2)C1 [Example 235, N-Cyclopropyl-4-[(3S)-3-(methylamino)pyrrolidin-1-yl]pyridin-2-amine] | 409
14 | CN[C@H]1CCN(c2ccnc(NCc3ccccc3)c2)C1 [Example 237, N-Benzyl-4-[(3S)-3-(methylamino)pyrrolidin-1-yl]pyridin-2-amine] | 585
15 | CN[C@H]1CCN(c2ccnc(NCCOC)c2)C1 [Example 238, N-(2-Methoxyethyl)-4-[(3S)-3-(methylamino)pyrrolidin-1-yl]pyridin-2-amine] | 555
16 | COCCNc1cc(N2CCN(C)CC2)ccn1 [Example 239, N-(2-Methoxyethyl)-4-(4-methylpiperazin-1-yl)pyridin-2-amine] | 701
17 | CN1CCN(c2ccnc(NCC(C)(C)O)c2)CC1 [Example 241, 2-Methyl-1-{[4-(4-methylpiperazin-1-yl)pyridin-2-yl]amino}propan-2-ol] | 837
18 | CN[C@H]1CCN(c2ccnc(NCC(C)(C)O)c2)C1 [Example 242, 2-Methyl-1-({4-[(3S)-3-(methylamino)pyrrolidin-1 yl]pyridin-2-yl}amino)propan-2-ol] | > 10000
19 | CN1CCN(c2ccnc(NCc3ccccn3)c2)CC1 [Example 244, 4-(4-Methylpiperazin-1-yl)-N-(pyridin-2-ylmethyl)pyridin-2-amine] | 3880
20 | CN[C@H]1CCN(c2ccnc(NCc3ccc(F)cc3)c2)C1 [Example 246, N-(4-Fluorobenzyl)-4-[(3S)-3-(methylamino)pyrrolidin-1-yl]pyridin-2-amine] | 395
21 | CN1CCN(c2ccnc(NCCc3ccccc3)c2)CC1 [Example 250, 4-(4-Methylpiperazin-1-yl)-N-(2-phenylethyl)pyridin-2-amine] | 659
22 | CN1CCN(c2ccnc(NC[C@]34C[C@H]5C[C@H](C[C@H](C5)C3)C4)c2)CC1 [Example 255, Adamantan-1-ylmethyl-[4-(4-methyl-piperazin-1-yl)-pyridin-2-yl]amine] | 1940

Second part, the molecule after the results:

Row | Ki [nM] | Compound
23 | 44.9 | CN[C@H]1CCN(c2ccnc(N[C@H]3C[C@H]4CC[C@]3(C)C4(C)C)c2)C1 [Example 206, 4-[(3S)-3-(Methylamino)pyrrolidin-1-yl]-N-[(1R,2S,4R)-1,7,7-trimethylbicyclo[2.2.1]hept-2-yl]pyridin-2-amine]
24 | 191 | CN1CCN(c2ccnc(NC3C4C[C@H]5C[C@@H](C4)C[C@@H]3C5)c2)CC1 (stereo partly drawn) [Example 207, Adamantan-2-yl-[4-(4-methyl-piperazin-1-yl)-pyridin-2-yl]-amine]
25 | 0.86 | CN[C@@H]1CCN(c2ccnc(NC3C4CC5CC(C4)CC3C5)c2)C1 (stereo partly drawn) [Example 208, Adamantan-2-yl-[4-(3R)-(3-methylamino-pyrrolidin-1-yl)-pyridin-2-yl]-amine]
26 | 1.68 | CN[C@@H]1CCN(c2ccnc(NCC3CCCCC3)c2)C1 [Example 211, N-(Cyclohexylmethyl)-4-[(3R)-3-(methylamino)pyrrolidin-1-yl]pyridin-2-amine]
27 | 157 | CN[C@H]1CCN(c2ccnc(N[C@H](C)C3CCCCC3)c2)C1 [Example 213, N-[(1R)-1-Cyclohexylethyl]-4-[(3S)-3-(methylamino)pyrrolidin-1-yl]pyridin-2-amine]
28 | 69.6 | CN[C@H]1CCN(c2ccnc(NC3C4CC5CC(C4)CC3C5)c2)C1 (stereo partly drawn) [Example 215, Adamantan-2-yl-[4-(3S)-(3-methylamino-pyrrolidin-1-yl)-pyridin-2-yl]-amine]
29 | 2.62 | CN[C@@H]1CCN(c2ccnc(NC34CC5CC(CC(C5)C3)C4)c2)C1 [Example 218, Adamantan-1-yl-[4-(3R)-(3-methylamino-pyrrolidin-1-yl)-pyridin-2-yl]-amine]
30 | 188 | CN1CCN(c2ccnc(NC34C[C@H]5C[C@@H](C3)C[C@@H](C4)C5)c2)CC1 [Example 219, Adamantan-1-yl-[4-(4-methyl-piperazin-1-yl)-pyridin-2-yl]-amine]
31 | 67.3 | CN[C@@H]1CCN(c2ccnc(NC3CCOCC3)c2)C1 [Example 222, 4-[(3R)-3-(Methylamino)pyrrolidin-1-yl]-N-(tetrahydro-2H-pyran-4-yl)pyridin-2-amine]
32 | 239 | CN[C@H]1CCN(c2ccnc(NC[C@H]3CC[C@H]4C[C@@H]3C4(C)C)c2)C1 [Example 224, N-{[(1S,2S,5S)-6,6-Dimethylbicyclo[3.1.1]hept-2-yl]methyl}-4-[(3S)-3-(methylamino)pyrrolidin-1-yl]pyridin-2-amine]
33 | 75.1 | CN[C@H]1CCN(c2ccnc(NCC3CCCCC3)c2)C1 [Example 225, N-(Cyclohexylmethyl)-4-[(3S)-3-(methylamino)pyrrolidin-1-yl]pyridin-2-amine]
34 | 3.81 | CN[C@@H]1CCN(c2ccnc(NCC3CCCC3)c2)C1 [Example 226, N-(Cyclopentylmethyl)-4-[(3R)-3-(methylamino)pyrrolidin-1-yl]pyridin-2-amine]
35 | 215 | CN[C@H]1CCN(c2ccnc(NC(C)(C)C)c2)C1 [Example 233, N-tert-Butyl-4-[(3S)-3-(methylamino)pyrrolidin-1-yl]pyridin-2-amine]
36 | 47.4 | CN1CCN(c2ccnc(NCC3CCCC3)c2)CC1 [Example 236, N-(Cyclopentylmethyl)-4-(4-methylpiperazin-1-yl)pyridin-2-amine]
37 | 54.3 | CN[C@@H]1CCN(c2ccnc(NCC(C)(C)O)c2)C1 [Example 240, 2-Methyl-1-({4-[(3R)-3-(methylamino)pyrrolidin-1-yl]pyridin-2-yl}amino)propan-2-ol]
38 | 167 | CCCCNc1cc(N2CC[C@H](NC)C2)ccn1 [Example 243]
39 | 228 | CN[C@H]1CCN(c2ccnc(NCCc3ccccc3)c2)C1 [Example 245, 4-[(3S)-3-(Methylamino)pyrrolidin-1-yl]-N-(2-phenylethyl)pyridin-2-amine]
40 | 1.41 | CN[C@@H]1CCN(c2ccnc(N[C@H]3C[C@H]4CC[C@]3(C)C4(C)C)c2)C1 [Example 247, 4-[(3R)-3-(Methylamino)pyrrolidin-1-yl]-N-[(1R,2S,4R)-1,7,7-trimethylbicyclo[2.2.1]hept-2-yl]pyridin-2-amine]
41 | 257 | CN1CCN(c2ccnc(NCc3ccc(F)cc3)c2)CC1 [Example 249, N-(4-Fluorobenzyl)-4-(4-methylpiperazin-1-yl)pyridin-2-amine]
42 | 79.4 | CN[C@H]1CCN(c2ccnc(NCC34CC5CC(CC(C5)C3)C4)c2)C1 [Example 251, Adamantan-1-ylmethyl-[4-(3S)-(3-methylamino-pyrrolidin-1-yl)-pyridin-2-yl]amine]
43 | 190 | CN1CCN(c2ccnc(N[C@H]3C[C@H]4CC[C@]3(C)C4(C)C)c2)CC1 [Example 252, 4-(4-Methylpiperazin-1-yl)-N-[(1R,2S,4R)-1,7,7-trimethylbicyclo[2.2.1]hept-2-yl]pyridin-2-amine]
44 | 4.33 | CN[C@@H]1CCN(c2ccnc(NCC3CC4CCC3C4)c2)C1 (stereo partly drawn) [Example 253, N-(Bicyclo[2.21]hept-2-ylmethyl)-4-[(3R)-3-(methylamino)pyrrolidin-1-yl]pyridin-2-amine]
45 | 27.5 | CCCCNc1cc(N2CC[C@@H](N)C2)ccn1 [Example 254, 4-[(3R)-3-Aminopyrrolidin-1-yl]-N-butylpyridin-2-amine]
